# System: NANOS3-Tdtomato reporter EPSCs
# Experiment: Differentiation to PGCLCs from NANOS3-Tdtomato reporter EPSCs (FACS)
# Format: cell-based, human
# Settings: 5.0 ng/ml supplemented in hEPSCM
# Method: For human PGCLCs, the PGC differentiation potential of two hEPSC lines are tested with the sequential induction method. Human pre-mesoderm (pre-ME) was first induced in pre-ME media (Advanced RPMI 1640 Medium, 1% B27 supplement, 1×NEAA and 1× glutamine penicillin-streptomycin supplemented with 100 ng/ml Activin A (SCI), 3 μM CHIR99021 and 10 μM of ROCKi Y-27632) for 12 hours. Pre-ME were trypsinized into single cells and seeded into Corning Costar Ultra-Low attachment multi well 96-well plates (Corning, Cat. No. 7007) 4,000-5,000 cells per well in the […] PGCLC medium which was used for porcine PGCLC induction. To improve the cell aggregation, in all PGCLC induction experiments, 0.25% (v/v) poly-vinyl alcohol (Sigma, Cat. No. 341584) are added in the basal medium.
substance,measurement,value
ACTIVIN A: Human Recombinant ACTIVIN A cytokine,NANOS3-tdTomato+ PGCLCs generated,more and substantially increased
